From PMC4147775, “Stimulation of Hepatic Apolipoprotein A-I Production by Novel Thieno-Triazolodiazepines: Roles of the Classical Benzodiazepine Receptor, PAF Receptor, and Bromodomain Binding” (Lipid insights, 2013)
Read-outs that look alike come from different tables or passages of the source.

What was measured:
BRD2(1) = molecular target: T1, BRD2(1) (Homo sapiens, UniProt P25440); assay: Protein stability shift assay (thermal shift), BRD2(1); format: binding; conditions: 10 μM ligand
T1 construct: the second as compared with the first bromodomain of these BRDs
T1 sequence (P25440 74-180 limits assumed): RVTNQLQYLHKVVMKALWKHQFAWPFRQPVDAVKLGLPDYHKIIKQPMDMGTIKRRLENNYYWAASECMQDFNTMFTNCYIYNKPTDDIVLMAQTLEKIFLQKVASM

BRD2(2) = molecular target: T2, BRD2(2) (Homo sapiens, UniProt P25440); assay: Protein stability shift assay (thermal shift), BRD2(2); format: binding; conditions: 10 μM ligand
T2 construct: the second as compared with the first bromodomain of these BRDs
T2 sequence (P25440 344-453 limits assumed): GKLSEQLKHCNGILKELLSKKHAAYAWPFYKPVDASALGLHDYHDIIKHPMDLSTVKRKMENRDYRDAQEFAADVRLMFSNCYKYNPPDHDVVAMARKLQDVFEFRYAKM

BRD3(1) = molecular target: T3, BRD3(1) (Homo sapiens, UniProt Q15059); assay: Protein stability shift assay (thermal shift), BRD3(1); format: binding; conditions: 10 μM ligand
T3 construct: the second as compared with the first bromodomain of these BRDs
T3 sequence (Q15059 34-140 limits assumed): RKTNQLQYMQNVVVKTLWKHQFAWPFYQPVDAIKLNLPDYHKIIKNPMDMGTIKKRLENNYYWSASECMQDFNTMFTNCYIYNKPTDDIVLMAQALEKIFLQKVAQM

BRD4(2) = molecular target: T4, BRD4(2) (Homo sapiens, UniProt O60885); assay: Protein stability shift assay (thermal shift), BRD4(2); format: binding; conditions: 10 μM ligand
T4 construct: the second as compared with the first bromodomain of these BRDs

BRDT(1) = molecular target: T5, BRDT(1) (Homo sapiens, UniProt Q58F21); assay: Protein stability shift assay (thermal shift), BRDT(1); format: binding; conditions: 10 μM ligand
T5 construct: the second as compared with the first bromodomain of these BRDs

BRDT(2) = molecular target: T6, BRDT(2) (Homo sapiens, UniProt Q58F21); assay: Protein stability shift assay (thermal shift), BRDT(2); format: binding; conditions: 10 μM ligand
T6 construct: the second as compared with the first bromodomain of these BRDs

BAZ2B = molecular target: T7, BAZ2B (Homo sapiens, UniProt Q9UIF8); assay: Protein stability shift assay (thermal shift), BAZ2B; format: binding; conditions: 10 μM ligand
T7 construct: Thermal shift (Δtm^obs) of human bromodomains in the presence of 10 μM compound
T7 sequence (Q9UIF8 2060-2164 limits assumed): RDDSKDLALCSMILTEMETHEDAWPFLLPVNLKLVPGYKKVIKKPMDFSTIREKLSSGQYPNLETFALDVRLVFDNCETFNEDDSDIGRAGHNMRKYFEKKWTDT

CREBBP = molecular target: T8, CREBBP (Homo sapiens, UniProt Q92793); assay: Protein stability shift assay (thermal shift), CREBBP; format: binding; conditions: 10 μM ligand
T8 construct: Thermal shift (Δtm^obs) of human bromodomains in the presence of 10 μM compound
T8 sequence (Q92793 1085-1192 limits assumed): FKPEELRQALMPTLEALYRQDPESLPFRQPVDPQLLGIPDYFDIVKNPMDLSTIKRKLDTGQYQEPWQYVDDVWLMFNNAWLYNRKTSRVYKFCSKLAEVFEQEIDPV

PB1(5) = molecular target: T9, PB1(5) (Homo sapiens, UniProt Q86U86); assay: Protein stability shift assay (thermal shift), PB1(5); format: binding; conditions: 10 μM ligand
T9 construct: Thermal shift (Δtm^obs) of human bromodomains in the presence of 10 μM compound
T9 sequence (Q86U86 653-763 limits assumed): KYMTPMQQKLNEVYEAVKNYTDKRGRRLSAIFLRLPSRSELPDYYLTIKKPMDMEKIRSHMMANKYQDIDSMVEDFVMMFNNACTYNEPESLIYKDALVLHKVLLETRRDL

PCAF = molecular target: T10, PCAF (Homo sapiens, UniProt Q92831); assay: Protein stability shift assay (thermal shift), PCAF; format: binding; conditions: 10 μM ligand
T10 construct: Thermal shift (Δtm^obs) of human bromodomains in the presence of 10 μM compound
T10 sequence (Q92831 723-827 limits assumed): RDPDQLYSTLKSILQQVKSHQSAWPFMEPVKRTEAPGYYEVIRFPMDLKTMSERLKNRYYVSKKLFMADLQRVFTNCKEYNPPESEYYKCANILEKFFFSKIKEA

[1] = system: apoA-I production by primary human hepatocytes; assay: apoA-I production by primary human hepatocytes (ELISA); format: cell-based; conditions: cultured human hepatocytes, highest concentration tested (100 μM)
[2] = system: apoA-I production by Hep-G2 cells; design: method as in PMID 20513599; conditions: HepG2 cells, 40 μM; cited from earlier work
[3] = some of the participants; cited from earlier work
[4] = system: fibrosarcoma cells (HT1080); assay: Cytotoxicity: mitochondrial membrane potential (TMRM)
BRD3(2) = BRD3(2) (Homo sapiens, UniProt Q15059); assay: Protein stability shift assay (thermal shift), BRD3(2); format: binding; design: the second as compared with the first bromodomain of these BRDs; conditions: 10 μM ligand
Chain of BRD3(2) (Q15059 306-415 limits assumed): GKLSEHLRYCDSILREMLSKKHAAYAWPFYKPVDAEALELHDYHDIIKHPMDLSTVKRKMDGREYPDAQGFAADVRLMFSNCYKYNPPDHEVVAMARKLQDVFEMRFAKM

BRD4(1) = BRD4(1) (Homo sapiens, UniProt O60885); assay: Protein stability shift assay (thermal shift), BRD4(1); format: binding; design: the second as compared with the first bromodomain of these BRDs; conditions: 10 μM ligand

COc1cc(OC)c2c(=O)[nH]c(-c3cc(C)c(OCCO)c(C)c3)nc2c1 [RVX-208, reference compound]
Thermal shift (ΔTm obs) BRD2(1) (BRD2(1)): 0.9
Thermal shift (ΔTm obs) BRD2(2) (BRD2(2)): 4.0
Thermal shift (ΔTm obs) BRD3(1) (BRD3(1)): 0.8
Thermal shift (ΔTm obs) BRD4(2) (BRD4(2)): 3.4
Thermal shift (ΔTm obs) BRDT(1) (BRDT(1)): 0.6
Thermal shift (ΔTm obs) BRDT(2) (BRDT(2)): 4.0
Thermal shift (ΔTm obs) BAZ2B (BAZ2B): −0.2
Thermal shift (ΔTm obs) CREBBP (CREBBP): −0.2
Thermal shift (ΔTm obs) PB1(5) (PB1(5)): 0.0
Thermal shift (ΔTm obs) PCAF (PCAF): −0.4
increase of apoA-I production [1]: up to 80%
stimulation of apoA-I protein production [2]: 2 fold
liver safety in human study [3]: signs of liver damage
IC50 ([4]; Homo sapiens, HT-1080, 72 h, read-out: mitochondrial membrane potential in fibrosarcoma cells, IC50, 72 hours): 50 µM
IC50 ([4]; read-out: mitochondrial membrane potential in fibrosarcoma cells, IC50, 72 hours): 49 µM
Thermal shift (ΔTm obs) BRD3(2) (BRD3(2)): 4.0
Thermal shift (ΔTm obs) BRD4(1) (BRD4(1)): 1.3
